Among the test systems are MOLT-4 leukemia; UO-31 renal; 786-0 renal; IGROV1 ovarian; SNB-19 CNS; DLD-1 colon; M19-MEL melanoma; HCT-15 colon; NCI-H226 lung; HOP-92 NSCLC; CCRF-CEM leukemia; NCI-H23 lung; EKVX NSCLC; MDA-N; DU-145 prostate.
What all share (experiment): NCI-60 cell line screen, 48 h

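Cells were grown in 96-well plates and exposed to each compound for 48 hours at five concentrations; endpoints were interpolated linearly between bracketing concentrations, or set to the highest concentration if not reached. At the TGI there is no net growth.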 A value given as a limit tells only on which side of the number the result lay.

For the compound `CCCCOC(=O)/C(CC(=O)C=C(C)C)=N\NS(=O)(=O)c1ccc(C)cc1`, the TGI with MOLT-4 leukemia, in the assay with UO-31 renal, in the assay with 786-0 renal, in the assay with IGROV1 ovarian, in the assay on SNB-19 CNS and in the assay on DLD-1 colon was greater than 100 µM throughout. Besides, the TGI in the assay with M19-MEL melanoma, in the assay with HCT-15 colon, in the assay with NCI-H226 lung, in the assay with HOP-92 NSCLC, in the assay with CCRF-CEM leukemia and with NCI-H23 lung was greater than 100 µM throughout. This compound registered a TGI in the assay with EKVX NSCLC greater than 100 µM.
Turning to `O=C(O)Cc1cc(=O)oc2cc(O)c(Cl)cc12`, the TGI with MOLT-4 leukemia, in the assay on 786-0 renal, with IGROV1 ovarian, in the assay on SNB-19 CNS, in the assay with DLD-1 colon and in the assay on M19-MEL melanoma was greater than 100 µM each time. For the same compound, the TGI in the assay with HCT-15 colon, in the assay on NCI-H226 lung, in the assay on HOP-92 NSCLC, with CCRF-CEM leukemia, in the assay with NCI-H23 lung and with EKVX NSCLC was greater than 100 µM in each case.
With `CCCOc1ccc(/C=C/c2cc(OC)c(OC)c(OC)c2)cc1`, the TGI with MOLT-4 leukemia is 13.2 µM; in the assay on UO-31 renal, greater than 100 µM; in the assay with 786-0 renal, greater than 56.3 µM; in the assay on IGROV1 ovarian it was greater than 100 µM; with SNB-19 CNS, greater than 100 µM; in the assay with DLD-1 colon, 35.7 µM. Besides, the TGI with M19-MEL melanoma was greater than 100 µM; in the assay on HCT-15 colon, 15.1 µM; with NCI-H226 lung, 2.54 µM; with HOP-92 NSCLC it was 7.41 µM; in the assay on CCRF-CEM leukemia, 24.5 µM; with NCI-H23 lung it was 0.706 µM. Besides, in the assay with EKVX NSCLC, the TGI is greater than 100 µM.
Turning to `N#CCCc1nc2ccc(Br)cc2c(=O)n1-c1ccc(O)c([N+](=O)[O-])c1`, the TGI in the assay with MOLT-4 leukemia was determined as 54.3 µM; in the assay with UO-31 renal, 78.9 µM; with 786-0 renal it was 43.2 µM; in the assay on IGROV1 ovarian, 47.7 µM; with DLD-1 colon, 34.7 µM; with M19-MEL melanoma, 42.3 µM. The TGI in the assay on HCT-15 colon is 38.3 µM; in the assay on NCI-H226 lung, 43.3 µM; in the assay with HOP-92 NSCLC, 51.6 µM; with CCRF-CEM leukemia it was 71.7 µM; with NCI-H23 lung, 42 µM; in the assay on EKVX NSCLC it was 74.3 µM.
As to `CCc1cc(Cc2cc(CC)c(NC(=O)C3=CC(=O)CC(c4ccc(OC)cc4)O3)c(CC)c2Cl)c(Cl)c(CC)c1NC(=O)C1=CC(=O)CC(c2ccc(OC)cc2)O1` (stereo unspecified), the TGI was greater than 100 µM with MOLT-4 leukemia; 30.8 µM in the assay on UO-31 renal; 34.3 µM in the assay with 786-0 renal; 45.5 µM in the assay on IGROV1 ovarian; 42.7 µM in the assay with SNB-19 CNS; 34.8 µM in the assay on DLD-1 colon. In addition, the TGI came to 40.2 µM in the assay on M19-MEL melanoma; 53.7 µM with HCT-15 colon; 47.5 µM with NCI-H226 lung; 39.7 µM with HOP-92 NSCLC; 90.2 µM with CCRF-CEM leukemia; 32 µM with NCI-H23 lung. The compound further returned a TGI in the assay with EKVX NSCLC greater than 100 µM.
On to `COc1ccc2c(c1)c(Cc1c(C)n(C)c3ccc(OC)cc13)c(C)n2C`, for which the TGI in the assay on MOLT-4 leukemia, in the assay with UO-31 renal, with 786-0 renal, in the assay with IGROV1 ovarian, with SNB-19 CNS and with DLD-1 colon was greater than 100 µM in each case. Besides, the TGI in the assay with M19-MEL melanoma, in the assay on HCT-15 colon, in the assay on NCI-H226 lung, in the assay on HOP-92 NSCLC, with CCRF-CEM leukemia and with NCI-H23 lung was greater than 100 µM in each case. The TGI in the assay with EKVX NSCLC is greater than 100 µM.
In the case of `CC[C@@]1(O)C(=O)OCc2c1c(Cl)c1n(c2=O)Cc2cc3ccccc3nc2-1`, the TGI with MOLT-4 leukemia is 19.3 µM; with UO-31 renal it was 9.22 µM; in the assay with 786-0 renal, 6.68 µM; with IGROV1 ovarian, 42.9 µM; in the assay on SNB-19 CNS it was 56.7 µM; in the assay with DLD-1 colon, greater than 100 µM. Further, the TGI is greater than 30.7 µM in the assay with M19-MEL melanoma; greater than 100 µM with MDA-N; greater than 81.6 µM with HCT-15 colon; 31.2 µM with NCI-H226 lung; greater than 70.3 µM in the assay with HOP-92 NSCLC; greater than 29 µM in the assay with CCRF-CEM leukemia. Also, the results for the TGI in the assay on DU-145 prostate, in the assay with NCI-H23 lung and in the assay with EKVX NSCLC were 8.63 µM, 6.24 µM and greater than 70.5 µM, respectively.
Turning to `Clc1ccc(C2=Nc3ccccc3SC(c3ccc(Cl)c(Cl)c3)C2)c(Cl)c1` (stereo unspecified), the TGI with MOLT-4 leukemia worked out at 18.1 µM; in the assay on UO-31 renal, 28.1 µM; in the assay with 786-0 renal, 27.6 µM; in the assay with IGROV1 ovarian it was 30.7 µM; with SNB-19 CNS, 40 µM; in the assay with DLD-1 colon it was 25.6 µM. In addition, the TGI in the assay with M19-MEL melanoma is 32.2 µM; in the assay with HCT-15 colon, 27.3 µM; in the assay on NCI-H226 lung, 37.4 µM; in the assay on HOP-92 NSCLC it was 30.1 µM; with CCRF-CEM leukemia it was 17.1 µM; with NCI-H23 lung, 34.2 µM. In the assay with EKVX NSCLC, this compound gave a TGI of 33.6 µM.
`CCOC(=O)/C(C#N)=C(O)/C(=C/c1ccccc1Cl)NC(=O)c1ccccc1`: the TGI in the assay on MOLT-4 leukemia, in the assay on UO-31 renal, in the assay with 786-0 renal, in the assay on IGROV1 ovarian, with SNB-19 CNS and in the assay with DLD-1 colon was greater than 100 µM each time. The TGI in the assay with M19-MEL melanoma, in the assay on HCT-15 colon, in the assay on NCI-H226 lung, with HOP-92 NSCLC, in the assay on CCRF-CEM leukemia and with NCI-H23 lung was greater than 100 µM in each case. The same compound yielded a TGI in the assay with EKVX NSCLC greater than 100 µM.
For the compound `c1ccc(C2=NN(c3ccccc3)C3(S2)SC(c2ccccc2)(c2ccccc2)c2ccccc23)cc1` (stereo unspecified), the TGI in the assay on MOLT-4 leukemia, in the assay on UO-31 renal, in the assay with 786-0 renal, in the assay with IGROV1 ovarian, in the assay with SNB-19 CNS and in the assay on DLD-1 colon was greater than 100 µM in each case. Moreover, the TGI with M19-MEL melanoma, in the assay on HCT-15 colon, in the assay with NCI-H226 lung, in the assay on HOP-92 NSCLC, in the assay on CCRF-CEM leukemia and with NCI-H23 lung was greater than 100 µM throughout. Further, the TGI in the assay with EKVX NSCLC is greater than 100 µM.
With `COc1ccc(CCN2CCC(C#N)(c3ccc(OC)c(OC)c3)CC2)cc1OC`, the TGI in the assay on MOLT-4 leukemia, with UO-31 renal, in the assay with 786-0 renal, in the assay with IGROV1 ovarian, with SNB-19 CNS and in the assay on DLD-1 colon was greater than 100 µM each time. In addition, the TGI in the assay with M19-MEL melanoma, with HCT-15 colon, with NCI-H226 lung, in the assay on HOP-92 NSCLC, in the assay with CCRF-CEM leukemia and in the assay on NCI-H23 lung was greater than 100 µM throughout. Also, the TGI with EKVX NSCLC is greater than 100 µM.
For `O=C(Nc1ccc(C(F)(F)F)cc1[N+](=O)[O-])C(=O)C(C(=O)c1ccc2ccccc2c1)C1OC(=O)c2ccccc21` (stereo unspecified), the TGI was 10.6 µM with MOLT-4 leukemia; 28.8 µM in the assay with UO-31 renal; 19.5 µM in the assay with 786-0 renal; greater than 66.3 µM in the assay on IGROV1 ovarian; 22.5 µM with SNB-19 CNS; 26.7 µM with DLD-1 colon. The TGI is 42.7 µM with M19-MEL melanoma; 51.4 µM in the assay on HCT-15 colon; 3.29 µM in the assay with NCI-H226 lung; 4 µM with HOP-92 NSCLC; 35.5 µM in the assay with CCRF-CEM leukemia; 12.1 µM with NCI-H23 lung. Moreover, the TGI with EKVX NSCLC came to 21.2 µM.
Consider `O=S(=O)(CC1=NC2C=CC=CC2N=C1)NCc1ccccc1` (stereo unspecified), for which the TGI in the assay on MOLT-4 leukemia, in the assay on 786-0 renal, in the assay on IGROV1 ovarian, in the assay on SNB-19 CNS, in the assay with DLD-1 colon and with M19-MEL melanoma was greater than 100 µM throughout. The TGI with HCT-15 colon, in the assay on NCI-H226 lung, in the assay on HOP-92 NSCLC, with CCRF-CEM leukemia, in the assay on NCI-H23 lung and with EKVX NSCLC was greater than 100 µM in each case.
As for `Cc1ccc2sc3cc(=O)cc(C)c-3nc2c1`, the TGI in the assay on MOLT-4 leukemia, in the assay with UO-31 renal, in the assay with 786-0 renal, in the assay on IGROV1 ovarian, with SNB-19 CNS and in the assay with DLD-1 colon was greater than 100 µM throughout. Further, the TGI in the assay on M19-MEL melanoma was 30.7 µM; in the assay with HCT-15 colon, greater than 100 µM; with NCI-H226 lung it was greater than 100 µM; in the assay on HOP-92 NSCLC, greater than 100 µM; in the assay on CCRF-CEM leukemia, 93.8 µM; in the assay with NCI-H23 lung, greater than 100 µM. This compound also displayed a TGI in the assay with EKVX NSCLC greater than 100 µM.

The record behind these values is PubChem BioAssay (NCI).
